Counter-ions that a name gives are not always drawn. Like-named read-outs stand apart in the source and are kept apart here. Each block holds one compound with its values, some of them ahead of it.
What was measured:
[1] = cited from earlier work
[2] = Phase solubility of prasugrel in aqueous SBE6.5-β-CD at pH 7.4; assay type: physicochemical; details: for solubility: aqueous solution, pH 7.4, aqueous with cosolvent or surfactant or cyclodextrin, thermodynamic from solid, Prasugrel Solubility
From the text: The results of the phase solubility study at pH 7.4 are also depicted graphically in FIG. 2.

platelet = details: healthy subjects; cited from earlier work
platelet aggregation = details: after treatment is stopped; cited from earlier work
[3] = Phase solubility of prasugrel in aqueous SBE6.5-β-CD or HP4.3-β-CD at pH 4; assay type: physicochemical; details: for solubility: thermodynamic from solid
From the text: The results of the phase solubility study at pH 4 are also depicted graphically in FIG. 3. […] Note that the data obtained for the 10% w/v cyclodextrin derivatives was not included in the best-fit line that appears in FIG. 3.

[4] = Stability of prasugrel in 30% w/v SBE6.5-β-CD or HP4.3-β-CD at pH 4 (HPLC); assay type: physicochemical
[5] = Stability of prasugrel in 30% w/v SBE6.5-β-CD at pH 3, 4 and 6 (HPLC); assay type: physicochemical; details: for decrease in prasugrel concentration: 30% w/v SBE6.5-β-CD
Protocol: The solutions were sampled at 0, 2, 7 and 53 hours. […] The data obtained from the stability study is provided graphically in FIG. 5.

Structure (SMILES): CC(=O)Oc1cc2c(s1)CCN(C(C(=O)C1CC1)c1ccccc1F)C2 (racemic) [Prasugrel hydrochloride]
pKa value [1]: 5.1
solubility ([1]; pH 1-4): soluble to slightly soluble
solubility ([1]; pH 5): very slightly soluble
solubility ([1]; pH 6-7): practically insoluble

Prasugrel Solubility ([2]; SBE6.5-β-CD 5% w/v): 0.0054% w/v
Prasugrel Solubility ([2]; SBE6.5-β-CD 10% w/v): 0.0124% w/v
Prasugrel Solubility ([2]; SBE6.5-β-CD 20% w/v): 0.0252% w/v
Prasugrel Solubility ([2]; SBE6.5-β-CD 30% w/v): 0.0379% w/v
prasugrel solubility as a function of the derivatized cyclodextrin concentration ([2]; SBE6.5-β-CD, FIG. 2): increased linearly
solubility ([2]; SBE6.5-β-CD 5% w/v): 54 µg/mL
solubility ([2]; SBE6.5-β-CD 10% w/v): 124 µg/mL
solubility ([2]; SBE6.5-β-CD 20% w/v): 252 µg/mL
solubility ([2]; SBE6.5-β-CD 30% w/v): 379 µg/mL
solubility ([2]; SBE6.5-β-CD 40% w/v): 515 µg/mL
solubility ([3]; aqueous HP4.3-β-CD solution, pH 4, aqueous with cosolvent or surfactant or cyclodextrin, Prasugrel Solubility w/ HP4.3-β-CD, HP4.3-β-CD 30% w/v): 645 µg/mL
solubility ([3]; aqueous SBE6.5-β-CD solution, pH 4, aqueous with cosolvent or surfactant or cyclodextrin, Prasugrel Solubility w/ SBE6.5-β-CD, SBE6.5-β-CD 30% w/v): 664 µg/mL
solubility ([3]; aqueous solution, pH 4, aqueous buffer, Prasugrel Solubility w/ HP4.3-β-CD, cyclodextrin derivative 0% w/v): 206 µg/mL
solubility ([3]; aqueous solution, pH 4, aqueous buffer, Prasugrel Solubility w/ SBE6.5-β-CD, cyclodextrin derivative 0% w/v): 206 µg/mL
solubility ([3]; aqueous solution, pH 4, aqueous with cosolvent or surfactant or cyclodextrin, Prasugrel Solubility w/ HP4.3-β-CD, HP4.3-β-CD 5% w/v): 256 µg/mL
solubility ([3]; aqueous solution, pH 4, aqueous with cosolvent or surfactant or cyclodextrin, Prasugrel Solubility w/ HP4.3-β-CD, HP4.3-β-CD 10% w/v): 474 µg/mL
solubility ([3]; aqueous solution, pH 4, aqueous with cosolvent or surfactant or cyclodextrin, Prasugrel Solubility w/ HP4.3-β-CD, HP4.3-β-CD 20% w/v): 524 µg/mL
solubility ([3]; aqueous solution, pH 4, aqueous with cosolvent or surfactant or cyclodextrin, Prasugrel Solubility w/ HP4.3-β-CD, HP4.3-β-CD 40% w/v): 875 µg/mL
solubility ([3]; aqueous solution, pH 4, aqueous with cosolvent or surfactant or cyclodextrin, Prasugrel Solubility w/ SBE6.5-β-CD, SBE6.5-β-CD 5% w/v): 268 µg/mL
solubility ([3]; aqueous solution, pH 4, aqueous with cosolvent or surfactant or cyclodextrin, Prasugrel Solubility w/ SBE6.5-β-CD, SBE6.5-β-CD 10% w/v): 736 µg/mL
solubility ([3]; aqueous solution, pH 4, aqueous with cosolvent or surfactant or cyclodextrin, Prasugrel Solubility w/ SBE6.5-β-CD, SBE6.5-β-CD 20% w/v): 580 µg/mL
solubility ([3]; aqueous solution, pH 4, aqueous with cosolvent or surfactant or cyclodextrin, Prasugrel Solubility w/ SBE6.5-β-CD, SBE6.5-β-CD 40% w/v): 927 µg/mL
prasugrel solubility as a function of the derivatized cyclodextrin concentration ([3]; both HP4.3-β-CD and SBE6.5-β-CD, FIG. 3): increased linearly
stability in aqueous solution containing a sulfoalkyl ether-β-cyclodextrin versus pH [4]: more stable at pH 4 or less
stability in SBE6.5-β-CD versus HP4.3-β-CD ([4]; 30% w/v solutions, pH 4, 0.1 M phosphate buffer, FIG. 6): nearly identical stability
decrease in prasugrel concentration ([5]; pH 3, 0.1 M phosphate buffer, after 30 hours): less than 10%
decrease in prasugrel concentration ([5]; pH 3, 0.1 M phosphate buffer, after about 55 hours): less than 20%
decrease in prasugrel concentration ([5]; pH 4, 0.1 M phosphate buffer, after 30 hours): less than 10%
decrease in prasugrel concentration ([5]; pH 4, 0.1 M phosphate buffer, after about 55 hours): less than 20%
decrease in prasugrel concentration ([5]; pH 6, 0.1 M phosphate buffer, after 30 hours): about 20%
decrease in prasugrel concentration ([5]; pH 6, 0.1 M phosphate buffer, after about 55 hours): about 36%
stability in aqueous solution containing a sulfoalkyl ether-β-cyclodextrin versus pH ([5]; pH 3, 4 and 6 compared): more stable at pH 4 or less
Structure (SMILES): CC(=O)Oc1cc2c(s1)CCN(C(C(=O)C1CC1)c1ccccc1F)C2 (racemic) [Prasugrel, 5-[(1RS)-2-cyclopropyl-1-(2-fluorophenyl)-2-oxoethyl]-4,5,6,7-tetrahydrothieno[3,2-c]pyridin-2-yl acetate]
platelet inhibition and response compared to clopidogrel (platelet): greater platelet inhibition and more consistent response
time to return to baseline levels of platelet aggregation (platelet aggregation): 7 to 10 days

— patent publication US10111863B2 (CYDEX PHARMACEUTICALS, INC., priority 2009, dated 2018)
